{
  "source": "ChEMBL document CHEMBL5034027",
  "about": "“Synthesis and evaluation of stereoisomers of methylated catechin and epigallocatechin derivatives on modulating P-glycoprotein-mediated multidrug resistance in cancers” (Eur J Med Chem, 2021)",
  "key": {"[1]": {"assay": "Reversal of P-glycoprotein mediated drug resistance in human LCC6MDR cells assessed as reversal of paclitaxel resistance measured after 5 days by Cell Titer-Glo luminescence assay", "assay_type": "cell-based", "settings": "120 h"}, "[2]": {"system": "L929", "assay": "Cytotoxicity against mouse L929 cells assessed as reduction in cell viability incubated for 72 hrs by MTS assay", "assay_type": "cell-based", "settings": "L929, 72 h"}, "[3]": {"system": "P-gp", "assay": "Selectivity index, ratio of IC50 for cytotoxicity against mouse L929 cells to EC50 for inhibition of P-gp in human LCC6MDR cells assessed as reversal of paclitaxel resistance", "assay_type": "toxicity, cell-based", "settings": "L929 cells (cytotoxicity IC50) and LCC6MDR cells (P-gp EC50), probe paclitaxel, read-out: Selectivity Index"}, "[4]": {"target": "T1, ATP-dependent translocase ABCB1 (Homo sapiens, UniProt P08183)", "T1 sequence (P08183 whole entry)": "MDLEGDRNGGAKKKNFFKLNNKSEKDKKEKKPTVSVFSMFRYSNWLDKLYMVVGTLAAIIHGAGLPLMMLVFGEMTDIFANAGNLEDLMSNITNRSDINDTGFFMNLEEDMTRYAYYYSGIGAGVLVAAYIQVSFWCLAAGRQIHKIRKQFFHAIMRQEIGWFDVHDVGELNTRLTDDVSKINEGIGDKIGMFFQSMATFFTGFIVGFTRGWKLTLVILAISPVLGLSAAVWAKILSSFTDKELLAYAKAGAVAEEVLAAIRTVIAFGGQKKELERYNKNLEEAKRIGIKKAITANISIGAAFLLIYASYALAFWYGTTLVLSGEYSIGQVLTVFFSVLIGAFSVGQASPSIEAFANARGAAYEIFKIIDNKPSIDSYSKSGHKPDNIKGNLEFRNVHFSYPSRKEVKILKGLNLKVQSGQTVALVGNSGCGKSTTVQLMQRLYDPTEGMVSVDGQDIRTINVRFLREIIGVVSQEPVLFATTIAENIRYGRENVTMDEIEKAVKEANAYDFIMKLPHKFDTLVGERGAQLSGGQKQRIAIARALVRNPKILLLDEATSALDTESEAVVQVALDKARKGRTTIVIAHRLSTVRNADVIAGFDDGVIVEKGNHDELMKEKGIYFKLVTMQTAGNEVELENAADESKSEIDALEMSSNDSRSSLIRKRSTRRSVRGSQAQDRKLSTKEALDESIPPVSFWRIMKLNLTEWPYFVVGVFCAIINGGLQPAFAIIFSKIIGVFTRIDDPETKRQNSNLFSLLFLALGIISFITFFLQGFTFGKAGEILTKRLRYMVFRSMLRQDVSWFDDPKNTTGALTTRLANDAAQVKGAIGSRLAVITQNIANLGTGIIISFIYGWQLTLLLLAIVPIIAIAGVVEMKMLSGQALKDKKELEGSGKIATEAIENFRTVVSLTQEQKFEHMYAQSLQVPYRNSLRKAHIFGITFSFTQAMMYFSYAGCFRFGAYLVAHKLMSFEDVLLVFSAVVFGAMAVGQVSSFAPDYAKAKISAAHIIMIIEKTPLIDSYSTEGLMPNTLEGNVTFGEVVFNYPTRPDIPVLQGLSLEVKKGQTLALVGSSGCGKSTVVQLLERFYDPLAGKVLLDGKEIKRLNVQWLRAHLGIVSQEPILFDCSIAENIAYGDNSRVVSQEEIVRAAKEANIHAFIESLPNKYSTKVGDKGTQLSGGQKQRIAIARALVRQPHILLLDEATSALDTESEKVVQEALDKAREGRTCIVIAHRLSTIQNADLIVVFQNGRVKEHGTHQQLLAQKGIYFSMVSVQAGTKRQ", "assay": "Inhibition of P-gp in human LCC6MDR cells assessed as intracellular DOX retention at 2 uM incubated for 90 mins by flow cytometry analysis relative to control", "assay_type": "cell-based", "set-up": "scale not given: the % may be the effect or the level left"}, "[5]": {"target": "T1, ATP-dependent translocase ABCB1", "assay": "Inhibition of P-gp in human LCC6MDR cells assessed as intracellular DOX retention at 2 uM incubated for 120 mins by flow cytometry analysis relative to control", "assay_type": "cell-based", "set-up": "scale not given: the % may be the effect or the level left", "settings": "2 h"}, "[6]": {"target": "T1, ATP-dependent translocase ABCB1", "assay": "Inhibition of P-gp in human LCC6MDR cells assessed as intracellular DOX retention at 2 uM incubated for 60 mins by flow cytometry analysis relative to control", "assay_type": "cell-based", "set-up": "scale not given: the % may be the effect or the level left", "settings": "1 h"}, "[7]": {"assay": "Reversal of P-glycoprotein mediated drug resistance in human LCC6MDR cells assessed as reversal of Dox resistance measured after 5 days by Cell Titer-Glo luminescence assay", "settings": "120 h"}},
  "note": "pEC50, pIC50: −log10 of the molar value.",
  "data": [
    {"smiles": "COc1cc(OC)c2c(c1)O[C@H](c1cc(OC)c(OC)c(OC)c1)[C@H](OC(=O)c1ccc(F)c(NC(=O)c3ccc(OC)c(OC)c3)c1)C2", "values": [
      {"measurement": "pEC50", "setting": "[1]", "value": 6.80}
    ]},
    {"smiles": "COc1cc(OC)c2c(c1)O[C@H](c1cc(OC)c(OC)c(OC)c1)[C@H](OC(=O)c1ccc(F)c(NC(=O)c3cc(OC)c(OC)c(OC)c3)c1)C2", "values": [
      {"measurement": "pEC50", "setting": "[1]", "value": 6.67}
    ]},
    {"smiles": "COc1cc(OC)c2c(c1)O[C@H](c1cc(OC)c(OC)c(OC)c1)[C@@H](OC(=O)c1ccc(F)c(NC(=O)c3ccc(OC)c(OC)c3)c1)C2", "values": [
      {"measurement": "pEC50", "setting": "[1]", "value": 6.77}
    ]},
    {"smiles": "COc1cc(OC)c2c(c1)O[C@H](c1cc(OC)c(OC)c(OC)c1)[C@@H](OC(=O)c1ccc(F)c(NC(=O)c3cc(OC)c(OC)c(OC)c3)c1)C2", "values": [
      {"measurement": "pEC50", "setting": "[1]", "value": 6.85}
    ]},
    {"smiles": "COc1cc(OC)c2c(c1)O[C@H](c1ccc(OC)c(OC)c1)[C@@H](OC(=O)c1ccc(F)c(NC(=O)/C=C/c3cc(OC)c(OC)c(OC)c3)c1)C2", "values": [
      {"measurement": "pEC50", "setting": "[1]", "value": 6.75},
      {"measurement": "pIC50", "setting": "[2]", "value": "< 4.00"},
      {"measurement": "selectivity ratio", "setting": "[3]", "value": "> 563"}
    ]},
    {"smiles": "COc1cc(OC)c2c(c1)O[C@H](c1ccc(OC)c(OC)c1)[C@@H](OC(=O)c1ccc(F)c(NC(=O)c3cc(OC)c(OC)c(OC)c3)c1)C2", "values": [
      {"measurement": "Activity", "setting": "[4]", "value": 89, "unit": "%"},
      {"measurement": "Activity", "setting": "[5]", "value": 90, "unit": "%"},
      {"measurement": "Activity", "setting": "[6]", "value": 87, "unit": "%"}
    ]},
    {"smiles": "COc1cc(OC)c2c(c1)O[C@@H](c1cc(OC)c(OC)c(OC)c1)[C@H](OC(=O)c1ccc(F)c(NC(=O)c3cc(OC)c(OC)c(OC)c3)c1)C2", "values": [
      {"measurement": "pEC50", "setting": "[1]", "value": 6.87},
      {"measurement": "pIC50", "setting": "[2]", "value": "< 4.00"},
      {"measurement": "selectivity ratio", "setting": "[3]", "value": "> 741"}
    ]},
    {"smiles": "COc1ccc(CCN(C)CCCC(C#N)(c2ccc(OC)c(OC)c2)C(C)C)cc1OC", "note": "(stereo not given)", "values": [
      {"measurement": "pEC50", "setting": "[7]", "value": 6.59}
    ]},
    {"smiles": "O=C(O[C@@H]1Cc2c(O)cc(O)cc2O[C@@H]1c1cc(O)c(O)c(O)c1)c1cc(O)c(O)c(O)c1", "note": "[EPIGALOCATECHIN GALLATE]", "values": [
      {"measurement": "pEC50", "setting": "[1]", "value": "< 6.00"}
    ]}
  ]
}
